Tests used:
MAL^TIR = target: T1, MAL^TIR (Homo sapiens, UniProt P58753); test: T‐Surf phage library (P8 and P3) selection against MAL^TIR, four rounds, NGS read counts; type: binding; details: for P8_MAL Rank (after) / P8_MAL Rank (before): P8 library; for P3_MAL Rank (after) / P3_MAL Rank (before): P3 library; for Population: 4th round of selection against MAL TIR, share of NGS reads
T1 construct: MAL (residues 79–221); 6xHis; made in house; host or cells: E. coli BL21 (DE3)
Description: T‐Surf libraries were screened against the immobilized TIR domains of two major human TLR adaptor proteins, MAL^TIR and MyD88^TIR, allowing cross‐species selection of TIR‐binding motifs with 190 946 TIR‐derived peptides in a single binding assay (Scheme 1). Enriched phage pools from the fourth round of selection were analyzed using NGS after barcoding the peptide‐coding regions of the phage pools.
Phage display screening was performed by coating two wells of a 96‐well plate (Maxisorp, Thermo Fisher Scientific) with 100 µL of 5 µg mL^−1 TIR domains overnight; then, the coated wells were blocked with 200 µL of blocking buffer (0.2% BSA in PBS) and set aside for 1 h at 4 °C with gentle shaking. Next, 100 µL of the phage library was added to the wells and incubated for 1 h at room temperature (RT; 20 – 22 °C) with gentle shaking. The plate was washed four times with PBS containing 0.5% Tween‐20; the bound phages were eluted by adding 100 µL of 100 mM HCl to each well. The elute was neutralized with 10 µL of 1.0 M Tris‐HCl (pH 11.0). E. coli TG1 cells were grown to the log phase (A600 = ≈0.6), and 1 mL of the culture was incubated with 100 µL of the eluted phages for 30 min at 37 °C, with shaking at 200 rpm. Next, 1 µL of M13KO7 helper phages was added, followed by incubation for 45 min at 37 °C, with shaking. Subsequently, the cells were transferred to 25 mL of 2× yeast extract tryptone/carbenicillin/kanamycin medium and incubated overnight at 37 °C with shaking at 200 rpm. The amplified phages were precipitated with 20% PEG‐8000/2.5 M NaCl to be used for the next round of selection.
The naïve T‐Surf libraries in P8 and P3 and the enriched phage pools after four rounds were barcoded for NGS as previously described.^[ [59] ^] Briefly, 5 µL of the phage pool was used as a template for 20 cycles of a 50 µL PCR reaction using […] each of forward and reverse barcoded primers and PrimeSTAR Max DNA Polymerase. The PCR products were purified using Expin Gel SV (GeneAll). The NGS samples were quantified using qPCR, following the qPCR Quantification Protocol Guide (KAPA Library Quantification kits for Illumina Sequencing Platform), and qualified using the TapeStation High Sensitivity D1000 ScreenTape (Agilent Technologies). The indexed libraries were further sequenced by Macrogen (Seoul, Republic of Korea) using the NovaSeq platform (Illumina) with 100 bp paired‐end reads. The reads were demultiplexed by barcodes and filtered for an average Phred quality score of at least 30, followed by trimming the flanking consensus sequences using Cutadapt (version 2.3). Peptide sequence populations were analyzed according to the read counts.

MyD88^TIR = target: T2, MyD88^TIR (Homo sapiens, UniProt Q99836); test: T‐Surf phage library (P8 and P3) selection against MyD88^TIR, four rounds, NGS read counts; type: binding; details: for Population: P8_MyD88 pool: P8 T-Surf phage library, 4th round of selection against MyD88 TIR, share of NGS reads; for P8_MyD88 Rank (after) / P8_MyD88 Rank (before): P8 library; for P3_MyD88 Rank (after) / P3_MyD88 Rank (before): P3 library
T2 construct: MyD88 (residues 148–296); 6xHis; made in house; host or cells: E. coli BL21 (DE3)
How it was run: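 Four panning rounds on TIR domain adsorbed at 5 µg mL^−1; binding 1 h at 20–22 °C, elution with 100 mM HCl. Output: NGS read counts of round‐4 pools versus naïve library.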

[1] = selection against MAL TIR, rank by count after grouping
[2] = selection against MAL TIR, rank by count before grouping
[3] = P3_MAL: rank by count after grouping
[4] = P3_MAL: rank by count before grouping
[5] = P8_MAL: rank by count after grouping
[6] = P8_MAL: rank by count before grouping
[7] = 4R selection against MAL, rank after grouping
[8] = 4R selection against MAL, rank before grouping
[9] = P8_MAL pool: P8 T-Surf phage library
[10] = P8_MyD88: rank by count after grouping
[11] = P8_MyD88: rank by count before grouping
[12] = selection against MyD88 TIR, rank by count after grouping
[13] = selection against MyD88 TIR, rank by count before grouping
[14] = selection against MyD88, rank after grouping
[15] = selection against MyD88, rank before grouping
[16] = 4R selection against MyD88, rank after grouping
[17] = 4R selection against MyD88, rank before grouping
[18] = selection against MyD88, rank by count after grouping
[19] = selection against MyD88, rank by count before grouping
[20] = P3_MyD88: rank by count after grouping
[21] = P3_MyD88: rank by count before grouping

T1 sequence (P58753 79-221): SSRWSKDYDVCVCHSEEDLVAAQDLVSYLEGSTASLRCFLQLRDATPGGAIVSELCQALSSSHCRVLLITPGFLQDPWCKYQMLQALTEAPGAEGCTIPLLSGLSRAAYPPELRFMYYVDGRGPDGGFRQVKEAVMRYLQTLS
T2 sequence (Q99836 148-296): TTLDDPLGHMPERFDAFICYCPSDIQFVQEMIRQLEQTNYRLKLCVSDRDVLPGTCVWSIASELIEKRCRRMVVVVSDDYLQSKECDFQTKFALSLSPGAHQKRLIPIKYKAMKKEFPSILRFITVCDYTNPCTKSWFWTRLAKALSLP

## YFLHFLLCSRPETAYI
MAL^TIR; [1]
  P8_MAL Rank (after): 199
MAL^TIR; [2]
  P8_MAL Rank (before): 1496

## NQWRNAQTAAAKLSGW
MAL^TIR; [3]
  Rank (after): 152
MAL^TIR; [4]
  Rank (before): 3399

## LGFLSHLALNLQAKEH
MAL^TIR; [3]
  Rank (after): 399
MAL^TIR; [4]
  Rank (before): 2081

## KLCWEKFKCFLPSLSR
MAL^TIR; [5]
  Rank (after): 404
MAL^TIR; [6]
  Rank (before): 2727

## WFYERLVRLILRDNKV
MAL^TIR; [7]
  P8_MAL Rank (after): 607
MAL^TIR; [8]
  P8_MAL Rank (before): 1280

## HFYWILLKSILGETRL
MAL^TIR; [7]
  P8_MAL Rank (after): 618
MAL^TIR; [8]
  P8_MAL Rank (before): 2426

## RNFVAYLVQALAKKGI
MAL^TIR; [5]
  Rank (after): 160
MAL^TIR; [6]
  Rank (before): 2225

## FLNFRGLGGRNYFLGH
MAL^TIR; [7]
  P3_MAL Rank (after): 628
MAL^TIR; [8]
  P3_MAL Rank (before): 1147

## TFLGHLYNSLVQAGTH
MAL^TIR; [7]
  P8_MAL Rank (after): 633
MAL^TIR; [8]
  P8_MAL Rank (before): 2563

## KERLHQWKLALTQAANLSGW
MAL^TIR; P3_MAL pool: P3 T-Surf phage library
  Population: 0.00376%
MAL^TIR; [3]
  Rank (after): 111
MAL^TIR; [4]
  Rank (before): 178

## WFYERLVSLILRDTIV
MAL^TIR; [9]
  Population: 0.00309%

## WFYERLLSLVLRDTKV
MAL^TIR; [5]
  Rank (after): 176
MAL^TIR; [6]
  Rank (before): 1248

## ASLYTFLINLTHPTNF
MAL^TIR; [9]
  Population: 0.0034%

## LKVKLASGAGKSGQT
MAL^TIR; [7]
  P3_MAL Rank (after): 619
MAL^TIR; [8]
  P3_MAL Rank (before): 2301

## WFYERLVSLILRYTKE
MAL^TIR; [1]
  P8_MAL Rank (after): 222
MAL^TIR; [2]
  P8_MAL Rank (before): 1197

## WFMMTFRTVLHHVHDV
MAL^TIR; [5]
  Rank (after): 425
MAL^TIR; [6]
  Rank (before): 1374

## WFYERLVSMVLRDTKV
MAL^TIR; [5]
  Rank (after): 406
MAL^TIR; [6]
  Rank (before): 1287

## YAASPWWFDELVKIVG
MAL^TIR; [5]
  Rank (after): 390
MAL^TIR; [6]
  Rank (before): 1526

## YFLHFLLFSLRKPSI
MAL^TIR; [1]
  P8_MAL Rank (after): 197
MAL^TIR; [2]
  P8_MAL Rank (before): 779

## VLQKFISHLYDFLARK
MAL^TIR; [1]
  P3_MAL Rank (after): 262
MAL^TIR; [2]
  P3_MAL Rank (before): 761

## YAFTDHLHRYVVQRGV
MAL^TIR; [1]
  P3_MAL Rank (after): 209
MAL^TIR; [2]
  P3_MAL Rank (before): 1463

## YLKWGYTRCWDRLRFA
MAL^TIR; [3]
  Rank (after): 478
MAL^TIR; [4]
  Rank (before): 1518

## DPQDLQSLYEGLVSLV
MyD88^TIR; [10]
  Rank (after): 467
MyD88^TIR; [11]
  Rank (before): 2944

## SFSFPLDQLSYFLNLP
MyD88^TIR; [10]
  Rank (after): 136
MyD88^TIR; [11]
  Rank (before): 147
MyD88^TIR
  Population: 0.0112%

## WALNELVEIYQAYKEL
MyD88^TIR; [12]
  P8_MyD88 Rank (after): 273
MyD88^TIR; [13]
  P8_MyD88 Rank (before): 521

## DPQDREWCYERLVSLL
MyD88^TIR; [14]
  P8_MyD88 Rank (after): 516
MyD88^TIR; [15]
  P8_MyD88 Rank (before): 2958

## DPQDQEWLYERLFSQM
MyD88^TIR; [16]
  P8_MyD88 Rank (after): 619
MyD88^TIR; [17]
  P8_MyD88 Rank (before): 2971

## GLSWGPYEWCRGLYDA
MyD88^TIR; [18]
  P8_MyD88 Rank (after): 770
MyD88^TIR; [19]
  P8_MyD88 Rank (before): 2294

## DLCDILSQNGIPTFFD
MyD88^TIR; [14]
  P8_MyD88 Rank (after): 534
MyD88^TIR; [15]
  P8_MyD88 Rank (before): 2582

## SSFREGLCRLLELSKQ
MyD88^TIR; [18]
  P3_MyD88 Rank (after): 725
MyD88^TIR; [19]
  P3_MyD88 Rank (before): 3201

## NQWRNALTAAANLSGEFG
MyD88^TIR; [16]
  P3_MyD88 Rank (after): 604
MyD88^TIR; [17]
  P3_MyD88 Rank (before): 3505

## DPQDRDWIYERLVSLF
MyD88^TIR; [10]
  Rank (after): 423
MyD88^TIR; [11]
  Rank (before): 2956

## YLKCGYPCFCDRLRFA
MyD88^TIR; [16]
  P3_MyD88 Rank (after): 620
MyD88^TIR; [17]
  P3_MyD88 Rank (before): 1566

## LKWGDERFWERLVYVM
MyD88^TIR; [12]
  P8_MyD88 Rank (after): 191
MyD88^TIR; [13]
  P8_MyD88 Rank (before): 250

## DHHLDLPRGKEIKPELLG
MyD88^TIR; [12]
  P3_MyD88 Rank (after): 245
MyD88^TIR; [13]
  P3_MyD88 Rank (before): 2038

## EWIREQLRPALDELVL
MyD88^TIR; [20]
  Rank (after): 165
MyD88^TIR; [21]
  Rank (before): 648

## EWGDPYFWSKLRYAM
MyD88^TIR; [18]
  P3_MyD88 Rank (after): 695
MyD88^TIR; [19]
  P3_MyD88 Rank (before): 2125

## YTALTNSRLHNFRDND
MyD88^TIR; [18]
  P3_MyD88 Rank (after): 696
MyD88^TIR; [19]
  P3_MyD88 Rank (before): 1707

## LKVESWRDALTAAANLSGW
MyD88^TIR; [14]
  P3_MyD88 Rank (after): 489
MyD88^TIR; [15]
  P3_MyD88 Rank (before): 2475

## YAFTGHLHRYIEQRSG
MyD88^TIR; [16]
  P3_MyD88 Rank (after): 610
MyD88^TIR; [17]
  P3_MyD88 Rank (before): 1533

## NELVKVWSSKANRLVG
MyD88^TIR; [20]
  Rank (after): 393
MyD88^TIR; [21]
  Rank (before): 3447

## DPQDLDCFDERLGSRV
MyD88^TIR; [16]
  P8_MyD88 Rank (after): 627
MyD88^TIR; [17]
  P8_MyD88 Rank (before): 2697

## SSLREGLWRLLELSKR
MyD88^TIR; [12]
  P3_MyD88 Rank (after): 209
MyD88^TIR; [13]
  P3_MyD88 Rank (before): 3257

## NELVHVWSSKANSLW
MyD88^TIR; [12]
  P3_MyD88 Rank (after): 262
MyD88^TIR; [13]
  P3_MyD88 Rank (before): 3420

## YASYDDNDYYWLTNVLLRLL
MyD88^TIR; [18]
  P8_MyD88 Rank (after): 710
MyD88^TIR; [19]
  P8_MyD88 Rank (before): 1778

## SSRWALDELVHIMQAL
MyD88^TIR; [10]
  Rank (after): 161
MyD88^TIR; [11]
  Rank (before): 179
MyD88^TIR
  Population: 0.00771%

## EWIREQLRPALKNGW
MyD88^TIR; [20]
  Rank (after): 434
MyD88^TIR; [21]
  Rank (before): 2155

## SSFRESLWRLLALNKR
MyD88^TIR; [20]
  Rank (after): 395
MyD88^TIR; [21]
  Rank (before): 3228

## LVAMKLPRACLKRLK
MyD88^TIR; [14]
  P3_MyD88 Rank (after): 505
MyD88^TIR; [15]
  P3_MyD88 Rank (before): 2318

## KMQKWNDALYEAAHLR
MyD88^TIR; [16]
  P3_MyD88 Rank (after): 636
MyD88^TIR; [17]
  P3_MyD88 Rank (before): 3714

## LIRAPSVHDFRGFVGI
MyD88^TIR; [16]
  P3_MyD88 Rank (after): 672
MyD88^TIR; [17]
  P3_MyD88 Rank (before): 2369

## DPQDLELFYEQLVRPF
MyD88^TIR; [10]
  Rank (after): 459
MyD88^TIR; [11]
  Rank (before): 2844

## YASSSWYLAELVHMPW
MyD88^TIR; P8_MyD88: rank by NGS read count after grouping
  Rank (after): 989
MyD88^TIR; P8_MyD88: rank by NGS read count before grouping
  Rank (before): 1854

## DHHLDLSRGKAIKPAILG
MyD88^TIR; [12]
  P3_MyD88 Rank (after): 236
MyD88^TIR; [13]
  P3_MyD88 Rank (before): 1997

## LLAHEISKNMKIFATI
MyD88^TIR; [14]
  P3_MyD88 Rank (after): 523
MyD88^TIR; [15]
  P3_MyD88 Rank (before): 2262
